The values below come from US10442804B2, “Compounds for the treatment of hepatitis B virus infection” (Gilead Sciences, Inc., priority 2017, dated 2019).

In series [1] the test system is HBV-infected NTCP-HepG2 cells, secreted HBsAg. In words: microbe, parasite or virus in culture. It is filed as cell-based, hepatitis B virus (genotype D, AD38-derived). The conditions noted are these: Hepatitis B virus, 120 h, secreted HBsAg in supernatant after 5 days; geometric mean of minimum four determinations; read-out: NTCP HBsAg EC50. Summed up:
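NTCP-HepG2 cells were infected with genotype D HBV at 4000 genome equivalents/cell, then seeded 4 days post-infection with serially diluted compounds (1% DMSO) for 5 days. Supernatant HBsAg was measured by chemiluminescent MSD immunoassay. EC50 from four-parameter fit, geometric mean of ≥4 determinations.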

A short description of the next series: MT-4 cytotoxicity assay. The conditions noted are these: human. It is filed as cell-based, human.
The mark [2] stands for this setting: five days, Cell Titer Glo luminescence, read-out: MT-4 CC50.

Read-outs that look alike come from different tables or passages of the source.

In general, EC50 refers to the concentration needed to bring the measured effect to its halfway point. As usually defined, the CC50 is the concentration at which the toxic effect on the cells reaches its halfway point. As for `COCCCOc1cc2c(cc1Cl)-c1cc(=O)c(C(=O)O)cn1N1CCCC(C)(C)C21` (stereo not shown) [Example 38, 13-chloro-12-(3-methoxypropoxy)-10,10-dimethyl-2-oxo-2,7,8,9,10,10a-hexahydrodipyrido[2,1-a:1′,2′-c]phthalazine-3-carboxylic acid], the EC50 in series [1] is 27 nM. For the same compound, in “MT-4 cytotoxicity assay” (setting [2]), the CC50 at 5 days is 9900 nM.

With `COCCCOc1cc2c(cc1Cl)-c1cc(=O)c(C(=O)O)cn1N1[C@@H]2CCC1(COC)COC` [Example 80, (R)-11-chloro-3,3-bis(methoxymethyl)-12-(3-methoxypropoxy)-8-oxo-2,3,8,13b-tetrahydro-1H-pyrido[2,1-a]pyrrolo[1,2-c]phthalazine-7-carboxylic acid], the EC50 in series [1] was determined as 45 nM. Further, the CC50 at 5 days in “MT-4 cytotoxicity assay” (setting [2]) was greater than 10000 nM.

For `COCCCOc1cc2c(cc1Cl)-c1cc(=O)c(C(=O)O)cn1N1[C@@H]2COCC1(C)C` (single isomer, unassigned) [Example 51], in series [1], the EC50 is 2.9 nM. In addition, the CC50 at 5 days in “MT-4 cytotoxicity assay” (setting [2]) was greater than 10000 nM.

Consider `COCCCOc1cc2c(cc1Cl)-c1cc(=O)c(C(=O)O)cn1N1[C@@H]2CCC12COC(C)(C)OC2` [Example 81, (R)-11-chloro-12-(3-methoxypropoxy)-2′,2′-dimethyl-8-oxo-1,2,8,13b-tetrahydrospiro[pyrido[2,1-a]pyrrolo[1,2-c]phthalazine-3,5′-[1,3]dioxane]-7-carboxylic acid], for which the EC50 in series [1] was determined as 386 nM. The CC50 at 5 days in the series “MT-4 cytotoxicity assay” (setting [2]) was greater than 10000 nM.

`CC1(C)CC[C@@H]2c3cc(OCC45CC(C#N)(C4)C5)c(C4CC4)cc3-c3cc(=O)c(C(=O)O)cn3N21` [Example 99, (R)-12-((3-cyanobicyclo[1.1.1]pentan-1-yl)methoxy)-11-cyclopropyl-3,3-dimethyl-8-oxo-2,3,8,13b-tetrahydro-1H-pyrido[2,1-a]pyrrolo[1,2-c]phthalazine-7-carboxylic acid]: in series [1], the EC50 came to 0.66 nM. The CC50 at 5 days in “MT-4 cytotoxicity assay” (setting [2]) amounted to 3600 nM.

With `COCCOCc1cc2c(cc1OC)-c1cc(=O)c(C(=O)O)cn1N1[C@@H]2CCC1(C)C` [Example 78, (R)-11-methoxy-12-((2-methoxyethoxy)methyl)-3,3-dimethyl-8-oxo-2,3,8,13b-tetrahydro-1H-pyrido[2,1-a]pyrrolo[1,2-c]phthalazine-7-carboxylic acid], the EC50 in series [1] came to 70 nM. The CC50 at 5 days in the series “MT-4 cytotoxicity assay” (setting [2]) is greater than 10000 nM.

Take `COCCCOc1cc2c(cc1Cl)-c1cc(=O)c(C(=O)O)cn1N1C2CCC12CC2` (stereo not shown) [Example 59, 11′-chloro-12′-(3-methoxypropoxy)-8′-oxo-1′,2′,8′,13b′-tetrahydrospiro[cyclopropane-1,3′-pyrido[2,1-a]pyrrolo[1,2-c]phthalazine]-7′-carboxylic acid]: the EC50 in series [1] was determined as 6 nM. In the series “MT-4 cytotoxicity assay” (MT-4 CC50), this compound came in with a CC50 at 5 days greater than 10000 nM.

As for `COc1cc2c(cc1OCC1CC(=O)C1)[C@H]1CCC(C)(C)N1n1cc(C(=O)O)c(=O)cc1-2` [Example 37], the EC50 in series [1] came out at 4 nM. In addition, the CC50 at 5 days in “MT-4 cytotoxicity assay” (setting [2]) is greater than 10000 nM.

Consider `COCCCOc1cc2c(cc1OC(C)(C)C)-c1cc(=O)c(C(=O)O)cn1N1[C@H]2CCC1(C)C` [Example 26, (S)-11-(tert-butoxy)-12-(3-methoxypropoxy)-3,3-dimethyl-8-oxo-2,3,8,13b-tetrahydro-1H-pyrido[2,1-a]pyrrolo[1,2-c]phthalazine-7-carboxylic acid], for which the EC50 in series [1] was greater than 1000 nM. Moreover, the CC50 at 5 days in the series “MT-4 cytotoxicity assay” (setting [2]) was greater than 10000 nM.

`CC1(COc2cc3c(cc2Cl)-c2cc(=O)c(C(=O)O)cn2N2[C@@H]3CCC2(C)C)COC1` [Example 49, (R)-11-chloro-3,3-dimethyl-12-((3-methyloxetan-3-yl)methoxy)-8-oxo-2,3,8,13b-tetrahydro-1H-pyrido[2,1-a]pyrrolo[1,2-c]phthalazine-7-carboxylic acid]: in series [1], the half-maximal effective concentration (EC50) is 3.8 nM. Further, the CC50 at 5 days in “MT-4 cytotoxicity assay” (setting [2]) is greater than 10000 nM.

For `COCCCOc1cc2c(cc1Cl)-c1cc(=O)c(C(=O)O)cn1N1[C@H](C)CC[C@@H]21` (single isomer, unassigned) [Example 9], the EC50 in series [1] stood at 45 nM. In the series “MT-4 cytotoxicity assay” (setting [2]), the CC50 at 5 days is greater than 10000 nM.

As for `CC1(C)CC[C@@H]2c3cc(OCC4CC(F)(F)C4)c(Cl)cc3-c3cc(=O)c(C(=O)O)cn3N21` [Example 54, (R)-11-chloro-12-((3,3-difluorocyclobutyl)methoxy)-3,3-dimethyl-8-oxo-2,3,8,13b-tetrahydro-1H-pyrido[2,1-a]pyrrolo[1,2-c]phthalazine-7-carboxylic acid], the EC50 in series [1] worked out at 0.75 nM. For the same compound, the 50% cytotoxic concentration (CC50) at 5 days in the series “MT-4 cytotoxicity assay” (setting [2]) is 5300 nM.

In the case of `COCCCOc1cc2c(cc1OC(F)F)-c1cc(=O)c(C(=O)O)cn1N1[C@@H]2CCC1(C)C` (single isomer, unassigned) [Example 19], the EC50 in series [1] turned out to be 1.2 nM. The CC50 at 5 days in the series “MT-4 cytotoxicity assay” (setting [2]) is greater than 10000 nM.

For `CC1(C)CC[C@@H]2c3cc(OCCn4nc5ccccn5c4=O)c(C4CC4)cc3-c3cc(=O)c(C(=O)O)cn3N21` [Example 96, (R)-11-cyclopropyl-3,3-dimethyl-8-oxo-12-(2-(3-oxo-[1,2,4]triazolo[4,3-a]pyridin-2(3H)-yl)ethoxy)-2,3,8,13b-tetrahydro-1H-pyrido[2,1-a]pyrrolo[1,2-c]phthalazine-7-carboxylic acid], the concentration for a half-maximal effect (EC50) in series [1] was 0.17 nM. Further, the CC50 at 5 days in the series “MT-4 cytotoxicity assay” (setting [2]) is greater than 10000 nM.

Regarding `COCCCOc1cc2c(cc1Cl)-c1cc(=O)c(C(=O)O)cn1N1CCC(C)(C)[C@@H]21` (single isomer, unassigned) [Example 48], the EC50 in series [1] was greater than 1000 nM. Also, the CC50 at 5 days in the series “MT-4 cytotoxicity assay” (setting [2]) was determined as 2200 nM.

As for `COCCCOc1cc2c(cc1Cl)-c1cc(=O)c(C(=O)O)cn1N1[C@H]2CCC1(C)C` (single isomer, unassigned) [Example 6], the EC50 in series [1] was 300 nM. Also, the CC50 at 5 days in the series “MT-4 cytotoxicity assay” (setting [2]) is greater than 10000 nM.

Turning to `COC(C)(C)C#Cc1cc2c(cc1OC(F)F)-c1cc(=O)c(C(=O)O)cn1N1[C@@H]2CCC1(C)C` [Example 103, (R)-11-(difluoromethoxy)-12-(3-methoxy-3-methylbut-1-yn-1-yl)-3,3-dimethyl-8-oxo-2,3,8,13b-tetrahydro-1H-pyrido[2,1-a]pyrrolo[1,2-c]phthalazine-7-carboxylic acid], the EC50 in series [1] was determined as 0.82 nM. In the series “MT-4 cytotoxicity assay” (setting [2]), the CC50 at 5 days was greater than 10000 nM.

Take `COCCCOc1cc2c(cc1Cl)-c1cc(=O)c(C(=O)O)cn1[C@@H]1[C@H]2CCC1(C)C` (single isomer, unassigned) [Example 34]: the EC50 in series [1] came out at 220 nM. In addition, the CC50 at 5 days in “MT-4 cytotoxicity assay” (setting [2]) was greater than 10000 nM.

For `CC1(C)CC[C@@H]2c3cc(-c4cnn(C5COC5)c4)c(OC(F)(F)F)cc3-c3cc(=O)c(C(=O)O)cn3N21` [Example 93, (R)-3,3-dimethyl-12-(1-(oxetan-3-yl)-1H-pyrazol-4-yl)-8-oxo-11-(trifluoromethoxy)-2,3,8,13b-tetrahydro-1H-pyrido[2,1-a]pyrrolo[1,2-c]phthalazine-7-carboxylic acid], the EC50 in series [1] amounted to 4.4 nM. Also, the CC50 at 5 days in “MT-4 cytotoxicity assay” (setting [2]) was greater than 10000 nM.

In the case of `CC1(C)CC[C@@H]2c3cc(C#Cc4ccc(N)nc4)c(OC(F)F)cc3-c3cc(=O)c(C(=O)O)cn3N21` [Compound 106, (R)-12-((6-aminopyridin-3-yl)ethynyl)-11-(difluoromethoxy)-3,3-dimethyl-8-oxo-2,3,8,13b-tetrahydro-1H-pyrido[2,1-a]pyrrolo[1,2-c]phthalazine-7-carboxylic acid], the EC50 in series [1] came to 0.37 nM. Also, in the series “MT-4 cytotoxicity assay” (setting [2]), the 50% cytotoxic concentration (CC50) at 5 days is 7500 nM.

Turning to `O=C(O)c1cn2c(cc1=O)-c1cc(Cl)c(-c3cnn(C4COC4)c3)cc1[C@H]1CCC3(CC3)N12` [Example 86, (R)-11′-chloro-12′-(1-(oxetan-3-yl)-1H-pyrazol-4-yl)-8′-oxo-1′,2′,8′,13b′-tetrahydrospiro[cyclopropane-1,3′-pyrido[2,1-a]pyrrolo[1,2-c]phthalazine]-7′-carboxylic acid], in series [1], the EC50 came out at 24.8 nM. In “MT-4 cytotoxicity assay” (MT-4 CC50), this compound gave a CC50 at 5 days greater than 10000 nM.

Take `COCCCOc1cc2c(cc1Cl)-c1cc(=O)c(C(=O)O)cn1N1[C@H]2COCC1(C)C` (single isomer, unassigned) [Example 39]: the EC50 in series [1] amounted to 680 nM. For the same compound, in the series “MT-4 cytotoxicity assay” (setting [2]), the CC50 at 5 days is greater than 10000 nM.

For the compound `COc1cc2c(cc1-c1cnn(C(F)F)c1)[C@H]1CCC(C)(C)N1n1cc(C(=O)O)c(=O)cc1-2` [Example 44, (R)-12-(1-(Difluoromethyl)-1H-pyrazol-4-yl)-11-methoxy-3,3-dimethyl-8-oxo-2,3,8,13b-tetrahydro-1H-pyrido[2,1-a]pyrrolo[1,2-c]phthalazine-7-carboxylic acid], the EC50 in series [1] was 5.5 nM. Further, the CC50 at 5 days in the series “MT-4 cytotoxicity assay” (setting [2]) was 3000 nM.

Turning to `CC(C)(C)OC(=O)[C@H]1CCN(c2cc3c(cc2OC(F)(F)F)-c2cc(=O)c(C(=O)O)cn2N2[C@@H]3CCC2(C)C)C1` [Compound 115, (R)-12-((S)-3-(tert-butoxycarbonyl)pyrrolidin-1-yl)-3,3-dimethyl-8-oxo-11-(trifluoromethoxy)-2,3,8,13b-tetrahydro-1H-pyrido[2,1-a]pyrrolo[1,2-c]phthalazine-7-carboxylic acid], in series [1], the EC50 worked out at 2.9 nM. In addition, the CC50 at 5 days in the series “MT-4 cytotoxicity assay” (setting [2]) was determined as 8300 nM.

`CC1(C)CC[C@@H]2c3cc(OCCCOC(F)(F)F)c(Cl)cc3-c3cc(=O)c(C(=O)O)cn3N21` [Example 55, (R)-11-chloro-3,3-dimethyl-8-oxo-12-(3-(trifluoromethoxy)propoxy)-2,3,8,13b-tetrahydro-1H-pyrido[2,1-a]pyrrolo[1,2-c]phthalazine-7-carboxylic acid]: in series [1], the EC50 is 3.7 nM. The CC50 at 5 days in “MT-4 cytotoxicity assay” (setting [2]) came to 6800 nM.

For `CC1(C)CC[C@@H]2c3cc(OCCn4nc5ccccn5c4=O)c(OC(F)(F)F)cc3-c3cc(=O)c(C(=O)O)cn3N21` [Example 91, (R)-3,3-dimethyl-8-oxo-12-(2-(3-oxo-[1,2,4]triazolo[4,3-a]pyridin-2(3H)-yl)ethoxy)-11-(trifluoromethoxy)-2,3,8,13b-tetrahydro-H-pyrido[2,1-a]pyrrolo[1,2-c]phthalazine-7-carboxylic acid], the EC50 in series [1] is 3 nM. For the same compound, in “MT-4 cytotoxicity assay” (setting [2]), the CC50 at 5 days is greater than 10000 nM.
